# In patent US7294643B2, “UK-1 analogues: methods of preparation and use” (Board of Regents, The University of Texas System, priority 2002, dated 2007):
# Assays:
# SK-N-F1 = experiment: alamarBlue cytotoxicity assay, SK-N-F1; format: cell-based
# Protocol: (§1) Cytotoxicity Assays. Cell culture cytotoxicity assays were performed using the. alamarBlue method, as described by Ahmed et al., J. Immun. Methods 1994, 170, 211-224, which is incorporated herein by reference. Briefly, aliquots of 100 μL of cell suspension (1.0-2.5×10^3 cells) was placed in 96-well microtiter plates in an atmosphere of 5% CO2 at 37° C. After 24 hours, 100 μL of culture medium and 2 μL of compound in vehicle (culture media with 40% pyridine) or vehicle alone were added, and the plates incubated an additional 72 hours. The final pyridine concentration in all cases was 0.4%; at this pyridine concentration there was no affect on the growth of cells compared to cells in culture media without added pyridine. […] After the culture media had been removed from each well, 200 μL of fresh media and 20 μL of 90% alamarBlue reagent were added, followed by an additional 6 h incubation. The fluorescent intensity was measured using a Spectrafluor Plus plate reader with excitation at 530 nm and emission at 590 nm. Results are reported as IC50 values, the average concentration required to produce a decrease of fluorescent intensity of 50% relative to vehicle-treated controls in two separate determinations.
# SK-N-SH = experiment: alamarBlue cytotoxicity assay, SK-N-SH; format: cell-based; details: Homo sapiens
# Protocol: as §1
# BT-20 = experiment: alamarBlue cytotoxicity assay, BT-20; format: cell-based; details: Homo sapiens; BT-20, alamarBlue
# Protocol: as §1
# A549 = experiment: alamarBlue cytotoxicity assay, A549; format: cell-based; details: Homo sapiens
# Protocol: as §1
# SK-N-D7 = experiment: alamarBlue cytotoxicity assay, SK-N-D7; format: cell-based
# Protocol: as §1
# SK-N-MC = experiment: alamarBlue cytotoxicity assay, SK-N-MC; format: cell-based; details: Homo sapiens
# Protocol: as §1
# Supercoiled ΦX174 DNA = experiment: Cleavage of supercoiled DNA, agarose gel electrophoresis; format: biochemical; details: 37° C.
# Protocol: Supercoiled Φ[…] DNA (50 μM) was incubated for 24 hrs in pH 8 Tris buffer (10 mM) at 37° C. with UK-1 (15-25 μM), H2O2 (5 μM-5 mM), or NiCl2 (15-25 μM), or a combination of these agents. Agarose gel electrophoresis was carried out to resolve the DNA products. […] There was an increase in the proportion of nicked, relaxed DNA product in the presence of an oxidant (e.g., H2O2), but no linear DNA that would indicate double-stranded DNA cleavage. […] FIG. 5 depicts cleavage of supercoiled DNA by UK-1 in the presence of oxidizing agents and metal ions. Supercoiled Φ[…] DNA (50 μM bp) was incubated with UK-1 (23 μM), NiCl2 (23 μM), H2O2 (5 mM), or combinations of these agents at 37° C. for 24 h and the DNA products subjected to agarose gel electrophoresis with ethidium bromide staining. Lanes: C, untreated supercoiled DNA; 1, DNA+UK-1; 2, DNA+NiCl2; 3, DNA+H2O2; 4, DNA+UK-1+NiCl2; 5, DNA+UK-1+H2O2; 6, DNA+UK-1+NiCl2+H2O2; 7, DNA+NiCl2+H2O2.
# CHP-212 = experiment: alamarBlue cytotoxicity assay, CHP-212; format: cell-based; details: Homo sapiens; CHP-212, alamarBlue
# Protocol: as §1
# [1] = Metal ion binding by continuous variation, Fe3+; details: Fe^3+, methanol, 1:1 complex
# Protocol: (§2) Previous work indicated the metal ion binding mechanism of UK-1, so the method of continuous variation was used to determine the ability of selected UK-1analogues to bind a variety of metal ions. Methanolic solutions of UK-1 or UK-1 analogues and metal ion salts [Ca(NO3)2, Mg(NO3)2, Zn(NO3)2, or Fe(NO3)3] at various molar ratios, and 20 μM combined total concentration, were prepared and the absorbance at 418 nm was determined. […] Compound 2.1 does bind with Ca^2+ and Zn^2+ better than UK-1.
# (§3) Continuous variation plots. A 100 μM solution of UK-1 or analogue and 100 AM solutions of Ca(NO3)2, Mg(NO3)2, Zn(NO3)2, or Fe(NO3)3 were prepared in methanol. From these stock solutions, 15 samples (1 mL) of varying mole fraction of the metal ion were prepared at a constant, combined concentration of 20 μM for the ligand and the metal ion. The change in absorbance was monitored from 500 to 200 nm for each sample using as a reference a 1 mL solution containing the same concentration of ligand as the sample being measured but without the metal ion. The maximum absorbance change was typically around 418 nm but varied somewhat for each metal ion. The absorbance at 418 nm was plotted as a function of the mole fraction of the metal ion and the maximum absorbance change was determined. The absorbance of a sample containing the metal ion concentration corresponding to this maximum change and a 15 fold excess of metal ion at this ligand concentration, subtracted from a reference containing the same concentration of ligand but no metal ion was used to normalize the curve and obtain the conditional formation constant as described in the paper to Likussar, W.; Boltz, D. F. Anal. Chem. 1971, 43, 1265-1272, which is incorporated herein by reference.
# yeast, or fungi = details: yeast, or fungi, concentrations as large as 250 μM; cited from earlier work
# DU145 = experiment: alamarBlue cytotoxicity assay, DU145; format: cell-based; details: Homo sapiens, DU-145
# Protocol: as §1
# PC-3 cells = experiment: alamarBlue cytotoxicity assay, PC-3; format: cell-based, human; details: PC-3, alamarBlue
# Protocol: as §1
# [2] = tested on: NGP neuroblastoma cell line; experiment: alamarBlue cytotoxicity assay, NGP; format: cell-based
# Protocol: as §1
# [3] = Metal ion binding by continuous variation, Mg2+; details: Mg^2+, methanol, 1:1 complex
# Protocol: as §2, §3
# [4] = Metal ion binding by continuous variation, Zn2+; details: Zn^2+, methanol, 1:1 complex
# Protocol: as §2, §3
# [5] = alamarBlue cytotoxicity, range over three cell lines; format: cell-based; details: human; range of concentrations required to inhibit growth of MCF-7, HT-29, and PC-3 cells by 50%
# Protocol: as §1
smiles,measurement,setting,value
COC(=O)c1cccc2oc(-c3cccc4oc(-c5ccccc5O)nc34)nc12 [UK-1],IC50,SK-N-F1,7000 nM
same,IC50,SK-N-SH,7000 nM
same,IC50,BT-20,170 nM
same,IC50,A549,1900 nM
same,IC50,SK-N-D7,170 nM
same,IC50,SK-N-MC,1100 nM
same,DNA cleavage,"Supercoiled ΦX174 DNA; UK-1 and an oxidant (H2O2), 24 hrs",significantly more DNA cleavage
same,DNA cleavage,"Supercoiled ΦX174 DNA; UK-1 only, 24 hrs, pH 8 Tris buffer",no evidence of DNA cleavage
same,DNA cleavage,"Supercoiled ΦX174 DNA; combination of UK-1, H2O2, and NiCl2, 24 hrs",particularly active in inducing DNA cleavage
same,IC50,CHP-212,12000 nM
same,Association constant for metal ion binding,[1],250000 M⁻¹
same,growth inhibition,"yeast, or fungi",does not inhibit the growth
same,IC50,DU145,200 nM
same,IC50,"PC-3 cells; Homo sapiens, PC-3, 72 h",400 nM
same,IC50,PC-3 cells; 72 h,320 nM
same,IC50,[2]; alamarBlue,20 nM
same,IC50,[2]; bound stated,< 100 nM
same,Association constant for metal ion binding,[3],2e+06 M⁻¹
same,Association constant for metal ion binding,[4],2e+06 M⁻¹
same,IC50 at 72 h,[5],320 to 65000 nM
